This is an account of results in ChEMBL document CHEMBL5357019, “Targeted Combination Therapies: A New Frontier in the Treatment of TP53 and KRAS Mutation-Associated Cancers” (2024).

Common to all, as to type: functional
Assay [1] has as its system NCI-H23. Briefly: Antitumor activity against human NCI-H23 cells assessed as inhibition of cell growth at 120 nM incubated for 72 hrs by Celltiter Glo assay relative to control.
For assay [2], the system named is NCI-H23. Put plainly: Synergistic antitumor activity against human NCI-H23 cells assessed as inhibition of cell growth at 120 nM incubated for 72 hrs in presence of sotorasib by Celltiter Glo assay relative to control.
Assay [3] concerns MIA PaCa-2. Briefly: Antitumor activity against human MIA PaCa-2 cells assessed as inhibition of cell growth at 1000 nM incubated for 72 hrs by Celltiter Glo assay.
Assay [4] concerns MIA PaCa-2. Briefly: Synergistic antitumor activity against human MIA PaCa-2 cells assessed as inhibition of cell growth at 1000 nM incubated for 72 hrs in the presence of sotorasib by Celltiter Glo assay.
Assay [5] concerns NCI-H358. Briefly: Antitumor activity against human NCI-H358 cells assessed as inhibition of cell growth at 300 nM incubated for 72 hrs by Celltiter Glo assay relative to control.
For assay [6], the system named is NCI-H358. Briefly: Synergistic antitumor activity against human NCI-H358 cells assessed as inhibition of cell growth at 300 nM incubated for 72 hrs in presence of sotorasib by Celltiter Glo assay relative to control.
Assay [7] deals with SW837. Put plainly: Antitumor activity against human SW837 cells assessed as inhibition of cell growth at 1000 nM incubated for 72 hrs by Celltiter Glo assay relative to control.
The test system of assay [8] is SW837. Put plainly: Synergistic antitumor activity against human SW837 cells assessed as inhibition of cell growth at 1000 nM incubated for 72 hrs in presence of sotorasib by Celltiter Glo assay relative to control.
The test system of assay [9] is SW837. Briefly: Antitumor activity against human SW837 cells xenografted in mouse assessed as tumor growth inhibition at 60 mg/kg, po administered once daily for 18 days relative to control. To be noted: SW837, 432 h, time 18 day, read-out: TGI.
In assay [10] the test system is SW837. Briefly: Synergistic antitumor activity against human SW837 cells assessed as tumor growth inhibition at 60 mg/kg, po once daily for 18 days co-administered with sotorasib relative to control. To be noted: SW837, 432 h, time 18 day, read-out: TGI.
Assay [11] has as its system SW837. Briefly: Synergistic antitumor activity against human SW837 cells assessed as tumor regression at 60 mg/kg, po once daily for 18 days co-administered with sotorasib relative to control. To be noted: time 18 day.
The subject of assay [12] is NCI-H23. Put plainly: Antitumor activity against human NCI-H23 cells assessed as inhibition of cell growth at 40 nM incubated for 72 hrs by Celltiter Glo assay relative to control.
In assay [13] the test system is MIA PaCa-2. Put plainly: Antitumor activity against human MIA PaCa-2 cells assessed as inhibition of cell growth at 350 nM incubated for 72 hrs by Celltiter Glo assay.
Assay [14] has as its system NCI-H358. Briefly: Antitumor activity against human NCI-H358 cells assessed as inhibition of cell growth at 10 nM incubated for 72 hrs by Celltiter Glo assay relative to control.
Assay [15] concerns SW837. Put plainly: Antitumor activity against human SW837 cells assessed as inhibition of cell growth at 12 nM incubated for 72 hrs by Celltiter Glo assay relative to control.
In assay [16] the test system is SW837. Put plainly: Antitumor activity against human SW837 cells xenografted in mouse assessed as tumor growth inhibition at 30 mg/kg, po administered once daily for 18 days relative to control. Conditions: SW837, 432 h, time 18 day, read-out: TGI.

On to `C=CCn1c(=O)c2cnc(Nc3ccc(N4CCN(C)CC4)cc3)nc2n1-c1ccc2c(n1)[C@@](O)(CC)CC2` [AZENOSERTIB], for which the inhibition at 0.12 µM in assay [1] was found to be 16.5%; in [2], 53%. Moreover, the inhibition at 1 µM in assay [3] is 47%; in [4], 76%; in [7], 28.8%; in assay [8], 45.4%. The figures for the inhibition at 0.3 µM in assay [5] and in assay [6] were 31.5% and 55.6%, respectively. For the same molecule, the inhibition in vivo at 60 mg/kg in assay [9] was determined as 72%; in assay [10], 109%. Moreover, the Activity in [11] came to 23%.
`C=CC(=O)N1CCN(c2nc(=O)n(-c3c(C)ccnc3C(C)C)c3nc(-c4c(O)cccc4F)c(F)cc23)[C@@H](C)C1` [SOTORASIB]: the inhibition at 0.04 µM in [12] was 27.8%. In assay [13], the inhibition at 0.35 µM was 39%. The inhibition at 0.01 µM in assay [14] was found to be 24%. In addition, in [15], the inhibition at 0.012 µM is 20.7%. Also, the inhibition in vivo at 30 mg/kg in [16] turned out to be 80%.
